Patent publication US7354912B2, “Unique compositions of zwitterionic phospholipids and bisphosphonates and use of the compositions as bisphosphate delivery systems with reduced GI toxicity” (Board of Reagents, University of Texas System, priority 2000, dated 2008)
Marks after values point to notes of the source that are not given here.

Legend:
[1] = system: gastric mucosa; assay: acute bisphosphonate/indomethacin gastric injury model of Blank et al. (gastric lesion score, gastric bleeding); assay type: in vivo, rat; details: for Gastric Lesion Score (lesioned area, mm^2) / order of gastrotoxicity (FIG. 4): rats; for Gastric Lesion Score (lesioned area, mm^2): Indo 40 mg/kg, pamidronate 300 mg/kg, PC-pamidronate 1:1 weight ratio, n = 4-5 rats/group; for order of gastrotoxicity (FIG. 4): comparison of three bisphosphonates
Text: (§1) The experiments investigated the effects of different bisphosphonates on the surface hydrophobicity and phospholipid concentration of the antral mucosa, using the animal model of Blank et. al. (Blank M A, Ems B L, Gibson G W, Myers W R, Berman S K, Phipps R J, Smith P N, Dig Dis Sci, 42, 281-288 (1997)), and compared the effects of these surface changes to the gastric toxicity of these drugs.
Looking at FIG. 2, an antrum lesion score is plotted against time.
The model and the ability for phospholipids to inhibit bisphosphonate GI toxicity was investigated in pilot preclinical studies using the rodent model of Blank et. al. (Blank M A, Ems B L, Gibson G W, Myers W R, Berman S K, Phipps R J, Smith P N, Dig Dis Sci, 42, 281-288 (1997)), where the bisphosphonate test drug was administered simultaneously with indomethacin.
60 mg of Phospholipon 90G (90-93% pure PC) was dissolved in chloroform in a tube. […] The organic solvent was removed under nitrogen and resulting PC material was left under vacuum overnight to form a PC film in the tube. […] The solution was then added to the dried PC film in the tube. The mixture was sonicated in a both type sonicator at room temperature for 5 min., prior to administration to fasted rats.
20 mg of dipalmitoyl PC (DPPC) and Phospholipon 90 G were dissolved in chloroform in separate tubes, and dried as described in Example 1.
60 mg and 240 mg of Phospholipon 90G were dissolved in chloroform and dried as described in Example 1 in separate tubes.

[2] = system: gastric mucosa; details: rats, intragastric high doses, with indomethacin; cited from earlier work
[3] = system: gastric mucosa; assay: surface hydrophobicity and phospholipid (PC) concentration of the antral/gastric mucosa
Text: as §1

[4] = system: mucosae of the gastric body and antrum; details: increasing doses over a 4 week period in rats; macroscopic and histological; cited from earlier work
[5] = healthy subjects, up to 2 weeks, 40 mg or 10 mg; cited from earlier work
[6] = system: aspirin-induced gastric erosions; details: 10 mg and 40 mg doses; cited from earlier work
[7] = system: experimentally induced gastric ulcers; details: rats; cited from earlier work
[8] = system: gastric mucosa; assay: histological studies of gastric mucosa; details: rat, in vivo

COc1ccc2c(c1)c(CC(=O)O)c(C)n2C(=O)c1ccc(Cl)cc1 [Indomethacin]
Gastric Lesion Score (lesioned area, mm^2) [1]: 0 ± 0 mm^2

NCCC(O)(P(=O)(O)O)P(=O)(O)O [Pamidronate, 3-amino-1-hydroxypropylidene-1,1-bisphosphonic acid]
gastric lesions (antrum lesion score, FIG. 2) ([1]; rat stomach, over a 4 hr period, in combination with indomethacin): induced lesions in both the antrum and body of the rat stomach
order of gastrotoxicity (FIG. 4) [1]: pamidronate>>alendronate>risedronate
Gastric Lesion Score (lesioned area, mm^2) [1]: 62 ± 11* mm^2
irritation of the gastric mucosa (comparison of bisphosphonates) [2]: more irritating

NCCCC(O)(P(=O)(O)O)P(=O)(O)O [alendronate, 4-amino-1-hydroxybutylidene-1,1-bisphosphonic acid]
order of ability to attenuate the stomach's hydrophobic phospholipid barrier property (FIG. 5) ([3]; rat, in vivo): pamidronate>>alendronate>risedronate
injurious effect on mucosae of the gastric body and antrum [4]: dose-dependent injurious effect
volunteers who developed one or more gastric ulcers [5]: 10-20%
volunteers with observable gastric erosions [5]: 40-60%
rate of healing of aspirin-induced gastric erosions [6]: significantly retarded
healing of experimentally induced gastric ulcers [7]: significantly delayed the healing

CC(O)(P(=O)(O)O)P(=O)(O)O [etidronate, 1-hydroxyethylidene-1,1-bisphosphonic acid]
injurious effect on mucosae of the gastric body and antrum [4]: dose-dependent injurious effect

O=P(O)(O)C(O)(Cc1cccnc1)P(=O)(O)O [risedronate, I-hydroxy-2-(3-pyridyl) ethylidene-1,(3-pyridyl) ethylidene-1,1-bisphosphonic acid]
order of gastrotoxicity (FIG. 4) [1]: pamidronate>>alendronate>risedronate
order of ability to attenuate the stomach's hydrophobic phospholipid barrier property (FIG. 5) ([3]; same order as gastrotoxicity maintained): pamidronate>>alendronate>risedronate
surface injury to the gastric mucosa (histology) [8]: induced some surface injury
injurious effect on mucosae of the gastric body and antrum [4]: dose-dependent injurious effect
